Experimental data reported in US8158021B2, “Polymerizable liquid crystal compound, polymerizable liquid crystal composition, liquid crystalline polymer, and optical anisotropic article” (Zeon Corporation, priority 2007, dated 2012).

Legend:
[1] = Formation of cholesteric phase in cured liquid crystalline polymer film; assay type: physicochemical; parameters: key: A case where a cholesteric phase was formed is indicated by “Formed”; a case where a cholesteric phase was not formed is indicated by “Not formed”; settings: composition with polymerizable chiral compound; cured film 4 μm; transmission spectrum
Experimental: The polymerizable liquid crystal composition solution was applied to a glass substrate provided with a rubbed polyimide alignment film using a bar coater (“SA-203” manufactured by Tester Sangyo Co., Ltd., Rod No. 8, shaft diameter: 12.7 mm). After drying the resulting film on a hot plate at 100° C. for three minutes, ultraviolet rays (1000 mJ/cm^2) were applied to the film from a mercury lamp to obtain a cured liquid crystalline polymer film having a thickness of 4 μm.
The transmission spectrum of the cured film was measured using a spectrophotometer (“MCPD-3000” manufactured by Otsuka Electronics Co., Ltd.). A selective reflection region (i.e., a region in which the transmittance was about 50%) was observed when a cholesteric phase was formed. The bandwidth was about 50 to 100 nm. A case where a cholesteric phase was formed is indicated by “Formed”, and a case where a cholesteric phase was not formed is indicated by “Not formed”.

[2] = Measurement of phase transition temperature (liquid crystallinity temperature range); assay type: physicochemical
Experimental: The substrates were heated from 30° C. to 250° C. on a hot plate, and then cooled to 30° C. A change in structure during a change in temperature was observed using a polarization optical microscope (“ECLIPSE LV100POL” manufactured by Nikon Corporation) to measure the phase transition temperature.
In Table 1, “C” indicates “Crystal”, “N” indicates “Nematic”, and “I” indicates “Isotropic”.

[3] = Measurement of optical anisotropy (value Δn) of cured polymer film; assay type: physicochemical; settings: cured polymer film 1.5 μm; retardation at 545.3 nm; Δn=Re/d
Experimental: 2.7 parts of a photoinitiator (“Irgacure 907” manufactured by Ciba Specialty Chemicals Co., Ltd.) was then homogenously dissolved in the solution. The resulting solution was applied to a glass substrate provided with a rubbed polyimide alignment film using a bar coater (“SA-203” manufactured by Tester Sangyo Co., Ltd., Rod No. 4, shaft diameter: 12.7 mm). After drying the resulting film on a hot plate at 100° C. for two minutes, ultraviolet rays (700 mJ/cm^2) were applied to the film from a mercury lamp to obtain a cured polymer film having a thickness of 1.5 μm.
The retardation (Re) of the cured film at a wavelength of 545.3 nm was measured using an ellipsometer (“XLS-100” manufactured by J. A. Woollam). The thickness (d) of the liquid crystal layer was also measured, and the value Δn was calculated by “Δn=Re/d”.

[4] = Solubility in cyclopentanone; settings: in cyclopentanone at 60° C., compound concentration 40 wt %
Experimental: The solubility of the compound at 60° C. was evaluated when preparing the solution having a compound concentration of 40 wt %.

[5] = Mutual solubility when forming the cured film; settings: at 23° C., naked eye observation of turbidity
Experimental: When forming the cured film of the compound, the mutual solubility of the compound at 23° C. was evaluated by naked eye observation. A case where turbidity was not observed is indicated by “Good”, and a case where turbidity was observed is indicated by “Bad”.

[6] = heated from 30° C. to 250° C., then cooled to 30° C., polarization optical microscope

| Cholesteric phase [1] | Liquid crystallinity temperature range [2, 6] | Δn [3] | Liquid crystallinity temperature range ([2]; summary of Table 1) | Solubility [4] | Mutual solubility [5] | SMILES |
| --- | --- | --- | --- | --- | --- | --- |
| Formed | 190 °C or more | 0.176 |  |  |  | C=CC(=O)OCCCCCCOc1ccc(C(=O)Oc2ccc(C=NN=Cc3ccc(OC(=O)c4ccc(OCCCCCCOC(=O)C=C)cc4)c(C(=O)OCCOCCC)c3)cc2)cc1 [Polymerizable liquid crystal compound 3] |
| Formed | 175 °C or more | 0.199 |  |  |  | C=CC(=O)OCCCCCCOc1ccc(C(=O)Oc2ccc(C=NN=Cc3ccc(OC(=O)c4ccc(OCCCCCCOC(=O)C=C)cc4)c(OCC)c3)cc2)cc1 [Polymerizable liquid crystal compound 4] |
| Formed | 155 °C or more | 0.116 |  |  |  | C=CC(=O)OCCCCCCOc1ccc(C(=O)Oc2ccc(C=NN=Cc3cc(OC)c(OC(=O)c4ccc(OCCCCCCOC(=O)C=C)cc4)c(OC)c3)cc2)cc1 [Polymerizable liquid crystal compound 5] |
| Formed | 170 °C or more | 0.202 |  |  |  | C=CC(=O)OCCCCOc1ccc(C(=O)Oc2ccc(C=NN=Cc3ccc(OC(=O)c4ccc(OCCCCOC(=O)C=C)cc4)c(OCC)c3)cc2)cc1 [Polymerizable liquid crystal compound 6] |
| Formed | 125 °C or more | 0.187 |  |  |  | C=CC(=O)OCCCCCCOc1ccc(C(=O)Oc2ccc(C=NN=Cc3ccc(OC(=O)c4ccc(OCCCCCCOC(=O)C=C)cc4)c(C(=O)OCCOC(=O)C=C)c3)cc2)cc1 [Polymerizable liquid crystal compound 7] |
| Formed | 150 °C or more | 0.200 |  |  |  | C=CC(=O)OCCCCCCOc1ccc(C(=O)Oc2ccc(C=NN=Cc3ccc(OC(=O)c4ccc(OCCCCCCOC(=O)C=C)cc4)c(OCC)c3)cc2OCC)cc1 [Polymerizable liquid crystal compound 8] |
| Formed | 130 °C or more | 0.191 |  |  |  | C=CC(=O)OCCCCCCOc1ccc(C(=O)Oc2ccc(C=NN=Cc3ccc(OC(=O)c4ccc(OCCCCCCOC(=O)C=C)cc4)c(C(=O)OC)c3)cc2C(=O)OC)cc1 [Polymerizable liquid crystal compound 10] |
|  |  |  | narrow temperature range |  |  | C=CC(=O)OCCCCOC(=O)Oc1ccc(C(=O)Oc2ccc(OC(=O)c3ccc(OC(=O)OCCCCOC(=O)C=C)cc3)c(C)c2)cc1 [Polymerizable liquid crystal compound 12, reference compound] |
| Formed | 63 °C | 0.100 |  | Good | Good | C=CC(=O)OCCCCOC(=O)Oc1ccc(C(=O)Oc2ccc(OC(=O)c3ccc(OC(=O)OCCCCOC(=O)C=C)cc3)c(C)c2)cc1 [compound 12] |
